Reference: patent publication US20070128217A1 (priority 2003, published 2007)

Experiments:
[1] = test system: control sera (pooled serum of ten healthy LUMC hospital workers; commercial negative donor pooled serum from the Dutch bloodbank); type: binding, human; parameters: Binding of Control serum LUMC to linear peptides / Binding of Control serum Blood-bank to linear peptides / Binding of Control serum LUMC to looped peptides / Binding of Control Serum Blood-Bank to Looped peptides / Binding of Control serum LUMC to linear peptides of the protein M of SARS-CoV Urbani / Binding of Control serum Blood-bank to linear peptides of the protein M of SARS-CoV Urbani / Binding of Control serum LUMC to looped peptides of the protein M of SARS-CoV Urbani / Binding of Control Serum Blood-Bank to Looped peptides of the protein M of SARS-CoV Urbani: unit not given here
[2] = test system: antibodies in sera from SARS patients (sera 1a, 1b, 2, 6, 37, 62, London, SARS-yellow, SARS-green); type: binding, human; parameters: Binding of serum 6 to linear peptides of protein X1 of SARS-CoV Urbani / Binding of serum 37 to linear peptides of protein X1 of SARS-CoV Urbani / Binding of serum 6 to looped/cyclic peptide (PEPSCAN-ELISA) / Binding of serum 37 to looped/cyclic peptide (PEPSCAN-ELISA) / Binding of serum 37 to looped/cyclic peptides of protein X1 of SARS-CoV Urbani / Binding of serum 6 to linear peptides of protein X2 / Binding of serum 37 to linear peptides of protein X2 / Binding of serum 37 to looped/cyclic peptides of protein X2 of SARS-CoV Urbani / Binding of serum 6 to linear peptides of protein M of SARS-CoV Urbani / Binding of serum 37 to linear peptides of protein M of SARS-CoV Urbani / Binding of serum 6 to looped/cyclic peptides of protein M of SARS-CoV Urbani / Binding of serum 37 to looped/cyclic peptides of protein M of SARS-CoV Urbani / Binding of serum 6 to linear peptides of protein X3 of SARS-CoV Urbani / Binding of serum 37 to linear peptides of protein X3 of SARS-CoV Urbani / Binding of serum 37 to looped/cyclic peptides of protein X3 of SARS-CoV Urbani / Binding of serum 6 to linear peptides of protein X4 of SARS-CoV Urbani / Binding of serum 37 to linear peptides of protein X4 of SARS-CoV Urbani / Binding of serum 37 to looped/cyclic peptides of protein X4 of SARS-CoV Urbani / Binding of serum 6 to linear peptides of protein X5 of SARS-CoV Urbani / Binding of serum 37 to linear peptides of protein X5 of SARS-CoV Urbani / Binding of serum 37 to looped/cyclic peptides of protein X5 of SARS-CoV Urbani / Binding of serum 6 to linear peptides of protein N of SARS-CoV Urbani / Binding of serum 37 to linear peptides of protein N of SARS-CoV Urbani / Binding of serum 6 to linear peptide (PEPSCAN-ELISA) / Binding of serum 1a to looped/cyclic peptides of protein N of SARS-CoV Urbani / Binding of serum 1b to looped/cyclic peptides of protein N of SARS-CoV Urbani / Binding of serum 2 to looped/cyclic peptides of protein N of SARS-CoV Urbani / Binding of serum 6 to looped/cyclic peptides of protein N of SARS-CoV Urbani / Binding of serum 37 to looped/cyclic peptides of protein N of SARS-CoV Urbani / Binding of serum 62 to looped/cyclic peptides of protein N of SARS-CoV Urbani / Binding of serum London to looped/cyclic peptides of protein N of SARS-CoV Urbani / Binding of serum SARS-green to looped/cyclic peptides of protein N of SARS-CoV Urbani: unit not given here
[3] = test system: rabbit serum obtained by immunizing a rabbit with the SARS-CoV strain Frankfurt 1; type: binding; parameters: Binding of a rabbit serum to linear peptides / Binding of a rabbit serum to looped peptides / Rabbit serum linear peptides / Rabbit serum looped peptides / Binding of a rabbit serum to linear peptides of protein N of SARS-CoV Urbani (Rabbit serum linear peptides) / Binding of a rabbit serum to looped/cyclic peptides of protein N of SARS-CoV Urbani (Rabbit serum looped peptides): unit not given here

Sequence: TGIENATFFIFNKLV
- Binding of Control Serum Blood-Bank to Looped peptides [1]: 0.8
- Binding of Control serum Blood-bank to linear peptides [1]: 0.8
- Binding of Control serum LUMC to linear peptides [1]: 0.7
- Binding of Control serum LUMC to looped peptides [1]: 0.7
- Binding of serum 1a to linear peptides of protein X1 of SARS-CoV Urbani [2]: 0.7
- Binding of serum 1a to looped/cyclic peptides of protein X1 of SARS-CoV Urbani [2]: 0.6
- Binding of serum 1b to linear peptides of protein X1 of SARS-CoV Urbani [2]: 0.5
- Binding of serum 1b to looped/cyclic peptides of protein X1 of SARS-CoV Urbani [2]: 0.5
- Binding of serum 2 to linear peptides of protein X1 of SARS-CoV Urbani [2]: 0.6
- Binding of serum 2 to looped/cyclic peptides of protein X1 of SARS-CoV Urbani [2]: 0.6
- Binding of serum 6 to linear peptides of protein X1 of SARS-CoV Urbani [2]: 0.5
- Binding of serum 6 to looped/cyclic peptides of protein X1 of SARS-CoV Urbani [2]: 0.5
- Binding of serum 37 to linear peptides of protein X1 of SARS-CoV Urbani [2]: 0.7
- Binding of serum 37 to looped/cyclic peptides of protein X1 of SARS-CoV Urbani [2]: 0.7
- Binding of serum 62 to linear peptides of protein X1 of SARS-CoV Urbani [2]: 0.7
- Binding of serum 62 to looped/cyclic peptides of protein X1 of SARS-CoV Urbani [2]: 0.7
- Binding of serum London to linear peptides of protein X1 of SARS-CoV Urbani [2]: 0.3
- Binding of serum London to looped/cyclic peptides of protein X1 of SARS-CoV Urbani [2]: 0.3
- Binding of serum SARS-green to linear peptides of protein X1 of SARS-CoV Urbani [2]: 0.4
- Binding of serum SARS-green to looped/cyclic peptides of protein X1 of SARS-CoV Urbani [2]: 0.2
- Binding of serum SARS-yellow to linear peptides of protein X1 of SARS-CoV Urbani [2]: 0.6
- Binding of serum SARS-yellow to looped/cyclic peptides of protein X1 of SARS-CoV Urbani [2]: 0.4
- Binding of a rabbit serum to linear peptides [3]: 0.1
- Binding of a rabbit serum to looped peptides [3]: 0.6

Sequence: THRMCKYTQSTALQE
- Binding of Control Serum Blood-Bank to Looped peptides [1]: 0.5
- Binding of Control serum Blood-bank to linear peptides [1]: 0.9
- Binding of Control serum LUMC to linear peptides [1]: 0.7
- Binding of Control serum LUMC to looped peptides [1]: 0.4
- Binding of serum 1a to linear peptides of protein X2 [2]: 0.9
- Binding of serum 1a to looped/cyclic peptides of protein X2 of SARS-CoV Urbani [2]: 0.5
- Binding of serum 1b to linear peptides of protein X2 [2]: 0.8
- Binding of serum 1b to looped/cyclic peptides of protein X2 of SARS-CoV Urbani [2]: 0.6
- Binding of serum 2 to linear peptides of protein X2 [2]: 0.5
- Binding of serum 2 to looped/cyclic peptides of protein X2 of SARS-CoV Urbani [2]: 0.2
- Binding of serum 6 to linear peptides of protein X2 [2]: 0.6
- Binding of serum 6 to looped/cyclic peptides of protein X2 of SARS-CoV Urbani [2]: 0.2
- Binding of serum 37 to linear peptides of protein X2 [2]: 0.7
- Binding of serum 37 to looped/cyclic peptides of protein X2 of SARS-CoV Urbani [2]: 0.3
- Binding of serum 62 to linear peptides of protein X2 [2]: 0.8
- Binding of serum 62 to looped/cyclic peptides of protein X2 of SARS-CoV Urbani [2]: 0.4
- Binding of serum London to linear peptides of protein X2 [2]: 0.7
- Binding of serum London to looped/cyclic peptides of protein X2 of SARS-CoV Urbani [2]: 0.2
- Binding of serum SARS-green to linear peptides of protein X2 [2]: 0.6
- Binding of serum SARS-green to looped/cyclic peptides of protein X2 of SARS-CoV Urbani [2]: 0.5
- Binding of serum SARS-yellow to linear peptides of protein X2 [2]: 0.8
- Binding of serum SARS-yellow to looped/cyclic peptides of protein X2 of SARS-CoV Urbani [2]: 0.3
- Binding of a rabbit serum to linear peptides [3]: 0.3
- Binding of a rabbit serum to looped peptides [3]: 0.3

Sequence: TIAEILIIIMRTFRI
- Binding of Control Serum Blood-Bank to Looped peptides of the protein X3 of SARS-CoV Urbani [1]: 1.1
- Binding of Control serum Blood-bank to linear peptides of the protein X3 of SARS-CoV Urbani [1]: 0.8
- Binding of Control serum LUMC to linear peptides of the protein X3 of SARS-CoV Urbani [1]: 0.6
- Binding of Control serum LUMC to looped peptides of the protein X3 of SARS-CoV Urbani [1]: 0.7
- Binding of serum 1a to linear peptides of protein X3 of SARS-CoV Urbani [2]: 0.8
- Binding of serum 1a to looped/cyclic peptides of protein X3 of SARS-CoV Urbani [2]: 0.7
- Binding of serum 1b to linear peptides of protein X3 of SARS-CoV Urbani [2]: 0.3
- Binding of serum 1b to looped/cyclic peptides of protein X3 of SARS-CoV Urbani [2]: 0.4
- Binding of serum 2 to linear peptides of protein X3 of SARS-CoV Urbani [2]: 0.7
- Binding of serum 2 to looped/cyclic peptides of protein X3 of SARS-CoV Urbani [2]: 0.6
- Binding of serum 6 to linear peptides of protein X3 of SARS-CoV Urbani [2]: 0.7
- Binding of serum 6 to looped/cyclic peptides of protein X3 of SARS-CoV Urbani [2]: 0.4
- Binding of serum 37 to linear peptides of protein X3 of SARS-CoV Urbani [2]: 0.6
- Binding of serum 37 to looped/cyclic peptides of protein X3 of SARS-CoV Urbani [2]: 0.3
- Binding of serum 62 to linear peptides of protein X3 of SARS-CoV Urbani [2]: 0.7
- Binding of serum 62 to looped/cyclic peptides of protein X3 of SARS-CoV Urbani [2]: 0.4
- Binding of serum London to linear peptides of protein X3 of SARS-CoV Urbani [2]: 0.7
- Binding of serum London to looped/cyclic peptides of protein X3 of SARS-CoV Urbani [2]: 0.2
- Binding of serum SARS-green to linear peptides of protein X3 of SARS-CoV Urbani [2]: 0.3
- Binding of serum SARS-green to looped/cyclic peptides of protein X3 of SARS-CoV Urbani [2]: 0.4
- Binding of serum SARS-yellow to linear peptides of protein X3 of SARS-CoV Urbani [2]: 0.3
- Binding of serum SARS-yellow to looped/cyclic peptides of protein X3 of SARS-CoV Urbani [2]: 0.5
- Rabbit serum linear peptides [3]: 0.2
- Rabbit serum looped peptides [3]: 0.0

Sequence: TIDGSSGVANPAMDP
- Binding of Control Serum Blood-Bank to Looped peptides [1]: 0.4
- Binding of Control serum Blood-bank to linear peptides [1]: 0.4
- Binding of Control serum LUMC to linear peptides [1]: 0.6
- Binding of Control serum LUMC to looped peptides [1]: 0.4
- Binding of serum 1a to linear peptides of protein X1 of SARS-CoV Urbani [2]: 0.6
- Binding of serum 1a to looped/cyclic peptides of protein X1 of SARS-CoV Urbani [2]: 0.5
- Binding of serum 1b to linear peptides of protein X1 of SARS-CoV Urbani [2]: 0.6
- Binding of serum 1b to looped/cyclic peptides of protein X1 of SARS-CoV Urbani [2]: 0.4
- Binding of serum 2 to linear peptides of protein X1 of SARS-CoV Urbani [2]: 0.6
- Binding of serum 2 to looped/cyclic peptides of protein X1 of SARS-CoV Urbani [2]: 0.4
- Binding of serum 6 to linear peptides of protein X1 of SARS-CoV Urbani [2]: 0.6
- Binding of serum 6 to looped/cyclic peptides of protein X1 of SARS-CoV Urbani [2]: 0.3
- Binding of serum 37 to linear peptides of protein X1 of SARS-CoV Urbani [2]: 0.6
- Binding of serum 37 to looped/cyclic peptides of protein X1 of SARS-CoV Urbani [2]: 0.3
- Binding of serum 62 to linear peptides of protein X1 of SARS-CoV Urbani [2]: 0.6
- Binding of serum 62 to looped/cyclic peptides of protein X1 of SARS-CoV Urbani [2]: 0.3
- Binding of serum London to linear peptides of protein X1 of SARS-CoV Urbani [2]: 0.4
- Binding of serum London to looped/cyclic peptides of protein X1 of SARS-CoV Urbani [2]: 0.2
- Binding of serum SARS-green to linear peptides of protein X1 of SARS-CoV Urbani [2]: 0.4
- Binding of serum SARS-green to looped/cyclic peptides of protein X1 of SARS-CoV Urbani [2]: 0.3
- Binding of serum SARS-yellow to linear peptides of protein X1 of SARS-CoV Urbani [2]: 0.3
- Binding of serum SARS-yellow to looped/cyclic peptides of protein X1 of SARS-CoV Urbani [2]: 0.2
- Binding of a rabbit serum to linear peptides [3]: 0.1
- Binding of a rabbit serum to looped peptides [3]: 0.4
